Where two headings read alike, the source gives them in different places.
Legend:
[1] = tested on: G361 cells (human skin melanoma); assay: MTT cell viability assay with photodynamic treatment; format: cell-based; settings: 4 h treatment, further 72 h, MTT
Experimental: For photodynamic treatments, G361 cells (human skin melanoma) were cultivated in DMEM medium without phenol red supplemented with 10% fetal bovine serum, 100 U/mL penicillin, 100 μg/mL streptomycin, 2 mM glutamine, at 37° C. in 5% CO2 atmosphere. Cells were treated with test compounds and after 4 h were irradiated (the maximal wavelength emission of 414 nm and different total doses up to 10 J/cm^2). Further cultivation lasted for subsequent 16, 24 or 72 h.
Cell viability (EC50) was determined using the MTT (Sigma-Aldrich) assay in 96-well microplates. Cells were seeded, next day treated with test compounds for 4 h and subsequently irradiated (the maximal wavelength emission of 414 nm and total dose of 2.5 and 10 J/cm^2). After irradiation, the cells were incubated for further 72 h and then the MTT solution was added. Cells were incubated for another 4 h at 37° C. and then the 0.1% SDS was added to the wells to solubilize the violet formazan crystals. The measurement of absorbance was carried out on reader Tecan Infinite M200Pro at 570 nm. Dark viability was measured in parallel under the same conditions without irradiation.

[2] = Absorption and fluorescence properties in water; format: physicochemical; settings: for λem: excitation wavelength 380 nm
Experimental: To determine the wavelength of light, at which 1,1-dimethyl-2-[(E)-2-phenylethenyl]-1H-benzo[e]indole derivatives should be irradiated for the investigation of their photodynamic activity, the absorption and fluorescence properties thereof were measured in water. The excitation wavelength λex was set to 380 nm. Based on the results an in-house constructed LED based light source specifically designed for the irradiation of 96-well microplates and Petri dishes (Tomecka et al., CZ302829B6, 2006) was chosen, with a maximal wavelength emission of 414 nm and light intensity set to 20 mW/cm^2.

[3] = G-361, dark kept G361 cells, read-out: G361 - EC50, Dark
[4] = G-361, light or radiation study, light irradiated (414 nm, 10 J/cm^2) G361 cells, irradiation, read-out: G361 - EC50, 10 J/cm^2

Structure (SMILES) | EC50 [1, 3] [µM] | EC50 [1, 4] [µM] | Stokes shift [2] [nm] | λabs [2] [nm] | λem [2] [nm]
CC1(C)C(/C=C/c2cccc(C(F)(F)F)c2)=Nc2ccc3ccccc3c21 [Compound 3n, 1,1-Dimethyl-2-{(E)-2-[3-(trifluoromethyl)phenyl]ethenyl}-1H-benzo[e]indole] | 7.8 | 1.3 | 94 | 426 | 520
CC1(C)C(/C=C/c2ccc3ccccc3c2)=Nc2ccc3ccccc3c21 [Compound 3l, 1,1-Dimethyl-2-[(E)-2-(naphthalen-2-yl)ethenyl]-1H-benzo[e]indole] | > 10 | 1.3 | 86 | 437 | 523
CC1(C)C(/C=C/c2ccccc2[N+](=O)[O-])=Nc2ccc3ccccc3c21 [Compound 3p, 1,1-Dimethyl-2-[(E)-2-(2-nitrophenyl)ethenyl]-1H-benzo[e]indole] | 7.8 | 1.1 | 132 | 434 | 566
CC1(C)C(/C=C/c2ccc(F)cc2)=Nc2ccc3ccccc3c21 [Compound 3d, 2-[(E)-2-(4-Fluorophenyl)ethenyl]-1,1-dimethyl-1H-benzo[e]indole] | 7.3 | 4.1 | 102 | 430 | 532
CC1(C)C(/C=C/c2ccc(F)c([N+](=O)[O-])c2)=Nc2ccc3ccccc3c21 [Compound 3i, 2-(E)-2-(4-Fluoro-3-nitrophenyl)ethenyl-1,1-dimethyl-1H-benzo[e]indole] | 7.8 | 2.1 | 126 | 399 | 525
CC1(C)C(/C=C/c2cc(C(F)(F)F)cc(C(F)(F)F)c2)=Nc2ccc3ccccc3c21 [Compound 3b, 2-{(E)-2-[3,5-Bis(trifluoromethyl)phenyl]ethenyl}-1,1-dimethyl-1H-benzo[e]indole] | > 10 | 1.3 | 109 | 400 | 509
CC1(C)C(/C=C/c2ccc(Cl)c([N+](=O)[O-])c2)=Nc2ccc3ccccc3c21 [Compound 3h, 2-[(E)-2-(4-Chloro-3-nitrophenyl)ethenyl]-1,1-dimethyl-1H-benzo[e]indole] | 7.2 | 0.3 | 106 | 426 | 532
CC1(C)C(/C=C/c2cccc3ccccc23)=Nc2ccc3ccccc3c21 [Compound 3o, 1,1-Dimethyl-2-[(E)-2-(naphthalen-1-yl)ethenyl]-1H-benzo[e]indole] | > 10 | 0.4 | 113 | 445 | 558

These reach a lower EC50 [1, 3]. Values come first.

EC50 [1, 3] [µM] | EC50 [1, 4] [µM] | Stokes shift [2] [nm] | λabs [2] [nm] | λem [2] [nm] | Structure (SMILES)
6.9 | 1.3 | 98 | 425 | 523 | Cc1ccc(/C=C/C2=Nc3ccc4ccccc4c3C2(C)C)cc1[N+](=O)[O-] [Compound 3k, 1,1-Dimethyl-2-[(E)-2-(4-methyl-3-nitrophenyl)ethenyl]-1H-benzo[e]indole]
6.9 | 1.2 | 98 | 443 | 541 | CC1(C)C(/C=C/c2cc([N+](=O)[O-])ccc2Cl)=Nc2ccc3ccccc3c21 [Compound 3c, 2-[(E)-2-(2-Chloro-5-nitrophenyl)ethenyl]-1,1-dimethyl-1H-benzo[e]indole]
5.8 | 2 | 133 | 397 | 530 | CC1(C)C(/C=C/c2ccccc2)=Nc2ccc3ccccc3c21 [Compound 3a, 1,1-Dimethyl-2-[(E)-2-phenylethenyl]-1H-benzo[e]indole]
5.1 | 1.3 | 154 | 369 | 523 | CC1(C)C(/C=C/c2ccc(F)c(C#N)c2)=Nc2ccc3ccccc3c21 [Compound 3j, 5-[(E)-2-(1,1-Dimethyl-1H-benzo[e]indol-2-yl)ethenyl]-2-fluorobenzonitrile]
4.9 | 0.2 | 146 | 403 | 549 | COc1ccc(/C=C/C2=Nc3ccc4ccccc4c3C2(C)C)cc1[N+](=O)[O-] [Compound 3f, 2-[(E)-2-(4-Methoxy-3-nitrophenyl)ethenyl]-1,1-dimethyl-1H-benzo[e]indole]
3.6 | 0.5 | 116 | 415 | 531 | CC1(C)C(/C=C/c2ccc(C(F)(F)F)cc2)=Nc2ccc3ccccc3c21 [Compound 3e, 1,1-Dimethyl-2-{(E)-2-[4-(trifluoromethyl)phenyl]ethenyl}-1H-benzo[e]indole]
2.1 | 0.3 | 89 | 424 | 513 | CC1(C)C(/C=C/c2cccc([N+](=O)[O-])c2)=Nc2ccc3ccccc3c21 [Compound 3m, 1,1-Dimethyl-2-[(E)-2-(3-nitrophenyl)ethenyl]-1H-benzo[e]indole]

Source: patent US12503437B2, “1,1-dimethyl-2-[(E)-2-phenylethenyl]-1H-benzo[e]indole derivatives and uses thereof” (Kaunas University of Technology, priority 2023, dated 2025)
